According to patent US7256172B1, “Method of treatment and agents useful for same” (The University of Melbourne, priority 1998, dated 2007):
No end group written: not given here.

How the values were obtained:
[1] = target: PAR1-like receptor ("atypical" thrombin receptor) of human coronary artery endothelial cells (human); assay: cell-based or functional assay
[2] = target: mouse protease activated receptor 1 (PAR1), in mouse bronchus and trachea tissue (mouse) (UniProt P30558); assay: cell-based or functional assay
Sequence of mouse protease activated receptor 1 (PAR1), in mouse bronchus and trachea tissue (mouse) (P30558 42-430): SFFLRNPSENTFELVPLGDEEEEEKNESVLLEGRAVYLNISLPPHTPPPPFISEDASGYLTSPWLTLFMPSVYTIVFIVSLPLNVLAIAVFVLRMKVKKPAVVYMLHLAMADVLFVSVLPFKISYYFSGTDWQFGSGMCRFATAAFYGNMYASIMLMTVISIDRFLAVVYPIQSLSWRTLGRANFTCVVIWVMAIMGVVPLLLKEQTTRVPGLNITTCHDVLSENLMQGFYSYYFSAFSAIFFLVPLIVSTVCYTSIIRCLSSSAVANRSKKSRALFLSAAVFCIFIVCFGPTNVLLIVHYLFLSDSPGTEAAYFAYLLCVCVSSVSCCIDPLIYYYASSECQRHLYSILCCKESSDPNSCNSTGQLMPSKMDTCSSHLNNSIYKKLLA

[3] = target: guinea-pig protease activated receptor 2 (PAR2), in guinea-pig bronchus tissue (guinea-pig); assay: cell-based or functional assay
[4] = target: T1, mouse protease activated receptor 2 (PAR2), in mouse bronchus and trachea tissue (mouse) (UniProt P55086); assay: cell-based or functional assay
T1 sequence (looked up): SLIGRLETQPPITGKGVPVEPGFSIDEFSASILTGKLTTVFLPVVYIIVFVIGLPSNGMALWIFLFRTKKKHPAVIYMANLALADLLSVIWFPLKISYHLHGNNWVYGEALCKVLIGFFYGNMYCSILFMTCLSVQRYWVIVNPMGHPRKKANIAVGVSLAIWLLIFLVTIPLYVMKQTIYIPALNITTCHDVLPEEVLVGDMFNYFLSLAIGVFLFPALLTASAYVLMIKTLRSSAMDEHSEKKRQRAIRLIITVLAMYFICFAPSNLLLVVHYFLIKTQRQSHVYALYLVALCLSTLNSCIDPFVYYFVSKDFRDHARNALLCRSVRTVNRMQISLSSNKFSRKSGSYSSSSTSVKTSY

[5] = target: T2, rat protease activated receptor 2 (PAR2), in rat airway tissue (rat) (UniProt Q63645); assay: cell-based or functional assay
T2 sequence (looked up): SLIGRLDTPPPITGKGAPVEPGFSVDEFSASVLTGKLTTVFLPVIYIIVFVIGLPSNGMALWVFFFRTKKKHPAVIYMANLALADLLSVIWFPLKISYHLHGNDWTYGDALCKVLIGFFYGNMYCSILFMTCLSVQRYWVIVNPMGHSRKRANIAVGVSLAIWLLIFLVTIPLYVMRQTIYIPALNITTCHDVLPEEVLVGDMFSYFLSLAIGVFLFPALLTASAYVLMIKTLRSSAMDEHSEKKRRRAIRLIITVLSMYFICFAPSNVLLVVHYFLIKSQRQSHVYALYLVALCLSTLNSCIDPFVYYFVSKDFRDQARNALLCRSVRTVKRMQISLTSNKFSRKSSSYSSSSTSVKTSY

mouse bronchial rings = conditions: for response of epithelium-intact bronchi: contracted to approximately 40% Fmax with carbachol; for response in presence of cyclooxygenase inhibitors: indomethacin (3 μM) or aspirin (100 μM)
Source text: (§1) The right and left main bronchi and their first order branches of specific pathogenfree (SPF) Balb/c mice (15–20 g; either sex), Hartley tricolour guinea-pigs (300–400 g; male) and Sprague-Dawley rats (200–350 g; either sex), all killed by either cervical dislocation or overdosed (i.p.) with sodium pentobarbitone, were cleared of surrounding connective tissue, nerves and blood vessels under a dissecting microscope and placed in cold, carbogenated (95% v/v O2,5% v/v CO2) Krebs solution (Kemp and Cocks, 1997). Human airway preparations (0.5–1 mm in external diameter) were dissected from lungs of cancer patients undergoing thoracotomy at The Royal Melbourne Hospital, Melbourne, Australia. The epithelium was removed from some bronchi either by mechanical abrasion of the luminal surface (guinea-pig) or by brief, gentle intraliminal flushing of the airways with Krebs containing 0.1% v/v Triton-X100 (mouse and rat). In each case, removal of the epithelium was verified histologically in 8 μm formalin-fixed, paraffin sections stained with haemotoxylin and eosin. Ring segments (approximately 2 mm long) of bronchi and bronchioles were mounted in Krebs (37° C.) on stainless steel wires (40 μm) in dual channel (5 ml) Mulvany-Halpern myographs (JP Trading, Aarhus, Denmark) to record changes in isometric force (Kemp and Cocks, 1997). After equilibration at a passive force between 0.2 g and 0.3 g, tissues were contracted to their maximum levels of active force (Fm.),) with acetylcholine (30 μM), thoroughly washed with Krebs and allowed to return to baseline. Various drugs or their vehicles were then added and 30 min later all tissues were contracted to approximately 40% Fmax with titrated concentrations of carbachol (10–500 nM). The L-type voltage-operated Ca^2+ channel inhibitor, nifedipine (0.3 μM) was added to all mouse and rat tissues after obtaining Fmax to control characteristic phasic contractile activity with carbachol.
If no response occurred the tissues were then exposed to cumulative concentrations of either SLIGRL—NH2 (SEQ ID NO:2) or SFLLRN—NH2 (SEQ ID NO:1) (0.1–30 μM).
(§2) Results are presented as mean±s.e mean and pEC50 (sensitivity) values were calculated by fitting concentration-response curves to a four parameter logistic function (Kemp and Cocks, 1997) using Graphpad Prism (version 2.0). Statistical comparison of mean pEC50 and maximum response (Rmax) values were compared by two-tailed unpaired Student's t-tests or one way analysis of variance (ANOVA) with Tukey-Kramer's t-tests for multiple comparisons. P<0.05 was accepted as significant. Unless specified, all averaged data are from n>5 experiments.
Mouse bronchus preparations were carefully mounted horizontally on fine (40 μm) stainless steel wires attached to the jaws of a Mulvany-Halpem myograph. After 60 min at 37° C., all rings were stretched to 0.5 g passive force, which had been determined in preliminary experiments to be optimal, and allowed to recover from that stretch for a further 30 min. Maximum contraction (Fmax) in each tissue was then determined with exogenously applied acetylcholine (ACh; 30 μM) followed by washout. A further 30 min equilibration time was allowed before the tissues were actively contracted to between 20% and 60% of their individual Fm.” values with titrated concentrations of carbachol (10–100 nM). […] In some cases, tissues were treated with a range of drugs prior to contraction to approximately […] Fmax. These included the cyclooxygenase inhibitors indomethacin and aspirin, the nitric oxide (NO) synthase inhibitor N′-nitro-L-(L-NOARG), the NO scavenger oxyhaemoglobin (Hb0), and the L-voltage-operated Cat' channel inhibitor nifedipine.
After an initial passive stretch to 0.5 g (Ti) and recovery, each ring was contracted with acetylcholine (Ach; 30 μM). The contraction was taken as the tissue maximum and referred to as Fmax.

mouse trachea = conditions: for increase in Isc in presence of indomethacin: cyclooxygenase inhibitor indomethacin; for change in Isc: luminally applied
Source text: Mice were killed by a lethal overdose of sodium pentobarbitone and the tracheae rapidly excised. The trachea was opened longitudinally through the ventral cartilage rings to make a fiat sheet. Each sheet of trachea was mounted between two perspex chambers so that the mucosal (luminal) and submucosal and bathed with warmed, oxygenated Krebs' solution, independently on each side. Electrodes in the chambers allowed recordings of transepithelial potential difference using an amplifier. The tissue was voltage clamped at 0 mV by passing a current from the amplifier via another set of electrodes in the chambers. The amount of current required to maintain voltage at 0 mV is defined as the short circuit current (Isc) and is conventionally used as a measure of all ionic fluxes across the preparation.
(§3) After an equilibration time of 30 min, compounds for testing and drugs to elucidate the mechanism of any changes in Isc to the test compounds were added to either side of the tracheal epithelium (ie to either bath). Compounds used for increasing Isc were PGE2, adenosine 5′-triphosphate (ATP), uridine 5′-triphosphate (UTP) and the PAR1-, PAR2- and PAR4-activating peptides, SFLLRN (SEQ ID NO:1) and SLIGRL (SEQ ID NO:2) and GYPGQY (SEQ ID NO:6), respectively. These stimulants were added cumulatively with controls for any time-dependent tachyphylaxis.

rat isolated bronchi = tested on: rat isolated bronchi
Source text: as §1
as §2, with “All cumulative responses (relaxations and contractions) were normalised as percentages of the initial level of active force to carbachol. Results” for “Results”

[6] = tested on: isolated human bronchioles
Experimental: Small (500 μm) bronchioles were carefully dissected from discarded sections of human left lung which had been excised at surgery from two male lung cancer patients (Royal Melbourne Hospital, Melbourne, Australia).
Dissection of these bronchioles required a fine-dissecting microscope and an assistant to continually flood the preparation with cold oxygenated Krebs solution to remove air bubbles and keep the tissue viable. Bronchioles approximately 2 mm in length were then mounted on […] diameter stainless wires in a Krebs solution-filled myograph chamber, as described for the mouse bronchus preparation above.

human distal colon = tested on: human distal colon
Experimental: Human distal colon strips obtained at bowel resection were suspended at 1 g passive isometric force and contracted with substance P (30 μM) to maintain a steady level of active tension.

monkey small bronchi = tested on: monkey small bronchi
Source text: The experimental details are similar to those for the mouse isolated bronchi. Briefly, approximately 2 mm long rings of small bronchi were mounted on wire hooks. In each trace, half log concentrations are not depicted for clarity.

[7] = tested on: human coronary artery rings; conditions: for relaxation after removal of the endothelium: endothelium-denuded; for maximum (Rmax % contraction reversal): endothelium-intact, control
[8] = tested on: human bronchial epithelium; conditions: after amiloride
Experimental: Human airways were obtained from discarded sections of lungs of patients undergoing lobectomy operations at the Royal Melbourne Hospital, Melbourne, Australia usually for lung cancer. The dissection and set up were as described above for the mouse trachea.
as §3

PAR1 = PAR1 (Homo sapiens, UniProt P25116); conditions: concentrations up to 1 mM, human platelets; cited from earlier work
Sequence of PAR1 (P25116 22-425): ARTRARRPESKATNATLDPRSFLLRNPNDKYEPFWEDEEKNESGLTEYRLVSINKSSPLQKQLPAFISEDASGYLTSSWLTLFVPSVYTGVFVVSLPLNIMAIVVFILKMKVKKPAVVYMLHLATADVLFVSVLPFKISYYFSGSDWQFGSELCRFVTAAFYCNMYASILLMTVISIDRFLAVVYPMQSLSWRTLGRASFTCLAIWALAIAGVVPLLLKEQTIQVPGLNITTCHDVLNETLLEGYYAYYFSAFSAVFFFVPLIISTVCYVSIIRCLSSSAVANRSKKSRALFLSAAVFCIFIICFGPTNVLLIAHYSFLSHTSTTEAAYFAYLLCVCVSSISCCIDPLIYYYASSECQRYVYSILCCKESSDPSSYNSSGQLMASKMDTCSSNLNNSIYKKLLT

guinea-pig taenia coli = conditions: apamin (100 μM)
Experimental: 2 cm strips of teania coil with intact Auerbach's plexus, but which had been stripped of the mucosa, were suspended in Kreb's solution under 1 g passive tension, and contracted with histamine (1 μM) to induce active tension.

## alpha-thrombin (bovine serum, Sigma) (from UniProt P00735 318-625) (enzyme)
[1]
  pEC50 (sensitivity), endothelium-dependent relaxation of U46619-contracted human coronary artery rings: 2.5 log U/ml

## SFLLRN-NH2 (human PAR1 tethered ligand sequence, thrombin receptor-activating peptide)
[1]
  pEC50, relaxation of human coronary artery after desensitisation to thrombin and trypsin: 6.4 -log M
  pEC50, relaxation of human coronary artery, untreated tissue: 7 -log M
  pEC50, relaxation of precontracted human coronary artery segments: 6.9 -log M
[2]
  pEC50, relaxation of carbachol-contracted mouse bronchial rings: 5.6 -log M
  pEC50, relaxation of first generation branches of the mouse main bronchi: 5.5 -log M

## SLIGRL-NH2 (mouse PAR2 tethered ligand sequence, PAR2 activating peptide)
[3]
  pEC50, epithelium-dependent relaxation of guinea-pig isolated bronchi: 5.4 -log M
[4]
  pEC50 (sensitivity), relaxation of carbachol-contracted mouse bronchial rings: 5.6 -log M
  pEC50, relaxation of first generation branches of the mouse main bronchi: 5.1 -log M
[5]
  pEC50, epithelium-dependent relaxation of rat isolated bronchi: 5.5 -log M
  pEC50, relaxation of rat bronchioles: 5.1 -log M

## trypsin (bovine pancreas, Worthington Biochem) (from UniProt P00760 24-246) (enzyme)
[1]
  pEC50 (sensitivity), endothelium-dependent relaxation of U46619-contracted human coronary artery rings: 1.7 log U/ml

## prostaglandin E2 [PGE2, reference compound]
Mouse bronchial rings
  response of epithelium-intact bronchi: potent and maximum relaxation
Mouse bronchial rings; epithelium removed with 0.1% v/v Triton X-100
  relaxation after removal of the epithelium: could still sensitively relax
Mouse bronchial rings; main bronchi with epithelium, % of initial force to carbachol
  maximum relaxation (Rmax): 100%
Mouse bronchial rings; main bronchi with epithelium, contracted with carbachol
  sensitivity (pEC50): 8.2±0.1 −log M
Mouse trachea
  increase in Isc in presence of indomethacin: unaffected
  change in Isc: rapid initial rise in Isc usually followed by some degree of recovery until a steady plateau was reached

## thrombin
Mouse bronchial rings
  response of epithelium-intact bronchi: only poor indomethacin sensitive relaxation at high concentrations
  response in presence of cyclooxygenase inhibitors: converted to contractions by indomethacin
Rat isolated bronchi
  response of rat bronchial rings: small relaxation
[6]
  response of human bronchioles: activity dependent relaxation that was reversed by indomethacin
Human distal colon
  response of human distal colon: did not result in relaxation
Monkey small bronchi
  effect on monkey small bronchi: smooth muscle relaxing effects
[7]
  relaxation after removal of the endothelium: abolished
  maximum (Rmax % contraction reversal): 88.9±4.9%

## SLIGKV-NH2
[8]
  change in Isc: relatively poor response
Monkey small bronchi
  effect on monkey small bronchi: smooth muscle relaxing effects
[7]
  maximum (Rmax % contraction reversal): 39.9±11.0%

## SLIGKVD-NH2
PAR1
  activation of PAR1: does not activate PAR1

## Nc1ncnc2c1ncn2[C@@H]1O[C@H](COP(=O)(O)OP(=O)(O)OP(=O)(O)O)[C@@H](O)[C@H]1O [ATP, adenosine 5′-triphosphate]
guinea-pig taenia coli
  relaxation in presence of apamin: no relaxation
Mouse trachea
  increase in Isc in presence of indomethacin: unaffected
  change in Isc: rapid initial rise in Isc usually followed by some degree of recovery until a steady plateau was reached

## trypsin
Mouse bronchial rings
  response of epithelium-intact bronchi: activity-dependent relaxation
  response in presence of cyclooxygenase inhibitors: blocked by indomethacin
[6]
  response of human bronchioles: activity dependent relaxation that was reversed by indomethacin
Monkey small bronchi
  effect on monkey small bronchi: smooth muscle relaxing effects
[7]
  relaxation after removal of the endothelium: abolished
  maximum (Rmax % contraction reversal): 88.1±2.9%
